The test system of the assay is BxPC-3 tumours. Kind of assay: In vivo BxPC-3 xenograft model, tumour growth. Further details: species or system SCID mice. Conditions: 100 μL I.P. injection, Gem HCl 120 mg/kg (scaled clinical dose); FIG. 7. As for the experimental part: All animals in these studies were treated humanely and in accordance with licensed protocols under the Animals (Scientific Procedures) Act 1986 (UK). BxPc-3 cells were maintained in RPMI 1640 media supplemented with 100 U/mL penicillin, […] streptomycin, and 10% fetal bovine serum (FBS) in a humidified 5% CO2 atmosphere at 37° C. Cells (1×10^6) were re-suspended in Matrigel® and implanted subcutaneously into the rear dorsum of SCID (C.B-17/IcrHan@Hsd-Prkdcscid) mice. Tumours reached treatable size within 3 weeks. Tumour measurements were taken daily using callipers. Once the tumours had reached an average volume of 150 mm^3 animals were randomly assigned into treatment groups. Animals were anaesthetised using isoflurane with medical grade oxygen as the carrier gas. […] As control groups, animals were treated with a 100 μL I.P injection of either (i) gemcitabine hydrochloride (120 mg/kg) or (ii) gemcitabine hydrochloride (120 mg/kg) and PTX (15 mg/kg). Ultrasound was applied directly to the tumour immediately following injection at an ultrasound frequency of 1 MHz, an ultrasound power density of 3.5 W/cm^2 and a duty cycle of 30% for 3.5 min. Tumour volume was measured using callipers and calculated using the formula: V=L×W×H/2.

For one compound, tumour growth control results are on record in patent publication US20220233713A1, “SONODYNAMIC THERAPY” (priority 2019, published 2022).

Where a name gives a salt, the structure may show the parent alone.

In the case of `Nc1ccn([C@@H]2O[C@H](CO)[C@@H](O)C2(F)F)c(=O)n1` [Gem HCl, gemcitabine hydrochloride], the tumour growth control entry is on record as “significantly controls tumour growth progression”.
